# B1: Ovalbumin (OVA) (protein, listed as Gallus gallus)
# chain: MGSIGAASMEFCFDVFKELKVHHANENIFYCPIAIMSALAMVYLGAKDSTRTQINKVVRFDKLPGFGDSIEAQCGTSVNVHSSLRDILNQITKPNDVYSFSLASRLYAEERYPILPEYLQCVKELYRGGLEPINFQTAADQARELINSWVESQTNGIIRNVLQPSSVDSQTAMVLVNAIVFKGLWEKAFKDEDTQAMPFRVTEQESKPVQMMYQIGLFRVASMASEKMKILELPFASGTMSMLVLLPDEVSGLEQLESIINFEKLTEWTSSNVMEERKIKVYLPRMKMEEKYNLTSVLMAMGITDVFSSSANLSGISSAESLKISQAVHAAHAEINEAGREVVGSAEAGVDAASVSEEFRADHPFLFCIKHIATNAVLFFGRCVSP
# Experiments:
# human PBMCs = experiment: Cytokine profile in human PBMCs ex vivo (ELISA); type: cell-based
# Protocol: In the present ex vivo experiment, peripheral blood mononuclear cells (PBMCs) from six healthy donors were stimulated with free CpG-A, free CpG-B (7909) or ACM-CpG-B at increasing concentration (0.62, 1.25, 2.5 and 5 μM). Levels of IL-6 and IFNα secreted into culture supernatant was measured by ELISA. […] The ability to induce both cytokines was advantageous as they stimulate DCs to mature and B cells to proliferate and produce antibody, respectively.
# C57BL/6 splenocytes = experiment: Cytokine production by splenocytes in vitro (adjuvant activity); type: cell-based, mice; conditions: culture supernatant, approximately 20 h, 0.125-0.5 μM
# Protocol: It is known that CpG can induce cytokine production by BALB/c splenocytes in vitro. In this experiment adjuvant effect of ACM polymersomes with CpG were studied. The experimental procedure included: • 1. Spleens harvested from three C57BL/6 mice • 2. 3 million splenocytes added to each well of 96-well plate in complete RPMI. • 3. The following treatment groups were used: untreated, free CpG, ACM-CpG and empty ACM, which were incubated approximately 20 h at 37° C. 5% C02. • 4. Collection of culture supernatants and measurement of IL-6 and IL-12p70 which are indicators of adjuvant effect. • 5. The following 96-well plate format was used for measurements (ms) carried out in triplicates (Table 1)
# [1] = system: classical dendritic cells (cDCs); experiment: Activation of classical dendritic cells in inguinal lymph nodes after SC injection; type: in vivo, C57BL/6 mice; conditions: 5 μg SC, inguinal lymph nodes two days after
# Protocol: Class B CpG binds endosomal Toll-like receptor 9 (TLR9) to induce several immunological effects, including activation of dendritic cells (DCs), production of pro-inflammatory cytokines and B cell differentiation and antibody secretion. These attributes make class B CpG valuable as a vaccine adjuvant. In this study, C57BL/6 mice were subcutaneously (SC) injected with 5 μg free murine CpG 1826 or ACM-CpG 1826 to compare their relative abilities to activate classical dendritic cells (cDCs). Two days after, inguinal lymph nodes (which drain the site of injection) were harvested to assess DC activation. […] Moreover, ACM polymersomes alone were non-immunogenic and thus enhanced DC activation was due to efficient delivery of CpG to endosomal TLR9.
# C57bl/6 mice = experiment: Immunization with OVA conjugated or encapsulated ACMs, sera tittering by ELISA (Example 13); type: in vivo; conditions: 4 μg of OVA per injection, sera 21 days after the boost
# Protocol: C57bl/6 mice were immunized with different OVA formulations: PBS (negative control), free OVA with or without Sigma Adjuvant System (SAS), OVA encapsulated ACMs or OVA conjugated ACMs. Balb/c mice were immunized with different HA formulations: PBS (negative control), free HA, HA encapsulated ACMs or HA conjugated ACMs. […] All immunizations were performed with a same final amount of antigen within each trial: 5-10 μg OVA/injection/mouse or 100-200 ng HA/injection/mouse. Final bleeds were collected 42 days after prime. ELISA was then performed to assess titers: OVA or HA were coated onto MaxiSorp plates (1 μg/ml in carbonate buffer) overnight. Plates were blocked using 3% BSA in PBS for 1 h at RT. All sera were diluted at 1:100 and incubated on plates for 1 h at RT. After 3 washes with PBS+0.05% Tween 20, secondary antibody anti-mouse IgG HRP coupled was incubated at 1:10,000 dilution for 1 h, RT (room temperature). After 3 washes with PBS/Tween 20 buffer, TMB substrate was added and reaction was stopped using 1M HCl. Optical densities were quantified at 450 nm.
# C57bl/6 mice were immunized with the following formulations: a negative control (PBS), free OVA with or without Sigma Adjuvant System (SAS), BD21 encapsulated OVA and BD21 conjugated OVA. […] 21 days after the boost, sera were collected for tittering by ELISA.
# [2] = PBMCs from six healthy donors, 0.62, 1.25, 2.5 and 5 μM
molecule,measurement,setting,value
CpG 7909 [CpG-B],CpG concentration at which IL-6 levels saturate,human PBMCs; PBMCs from six healthy donors,around 1.25 μM
same,IFNα production,human PBMCs; [2],little to none was detected
same,IL-6 secreted into culture supernatant,human PBMCs; [2],low to moderate quantities
CpG ODN1826 [free CpG],IL-6 production,C57BL/6 splenocytes,only detected in free CpG- or ACM-CpG-treated splenocytes
same,IL-12 (IL-12p70) production,C57BL/6 splenocytes,not detected even in neat culture supernatant
same,CD86 and CD80 activation marker expression on cDC2,[1],significant increase in CD86 and CD80 expression on cDC2
B1,IgG response / titer against OVA (ELISA),C57bl/6 mice,not able to elicit an IgG response
